Key:
Type in all cases: cell-based
[1] = tested on: MALME-3M; assay: NCI60 one-dose screen; conditions: Homo sapiens, Malme-3M, read-out: Growth percent
[2] = tested on: MDA-MB-435; assay: NCI60 one-dose screen; conditions: Homo sapiens, MDA-MB-435, read-out: Growth percent
[3] = tested on: LOX IMVI; assay: NCI60 one-dose screen; conditions: Homo sapiens, read-out: Growth percent
[4] = tested on: EKVX; assay: NCI60 one-dose screen; conditions: Homo sapiens, read-out: Growth percent
[5] = tested on: NCI-H522; assay: NCI60 five-dose screen; conditions: Homo sapiens, NCI-H522
[6] = tested on: KM12; assay: NCI60 five-dose screen; conditions: Homo sapiens, KM12
[7] = tested on: TK-10; assay: NCI60 five-dose screen; conditions: Homo sapiens, TK-10
[8] = tested on: HOP-92; assay: NCI60 five-dose screen; conditions: Homo sapiens, HOP-92
[9] = tested on: IGROV1; assay: NCI60 one-dose screen; conditions: Homo sapiens, IGROV-1, read-out: Growth percent
[10] = tested on: CCRF-CEM; assay: NCI60 five-dose screen; conditions: Homo sapiens
[11] = tested on: RPMI-8226; assay: NCI60 five-dose screen; conditions: Homo sapiens, RPMI-8226
[12] = tested on: IGROV1; assay: NCI60 five-dose screen; conditions: Homo sapiens, IGROV-1
[13] = tested on: MALME-3M; assay: NCI60 five-dose screen; conditions: Homo sapiens, Malme-3M
[14] = tested on: A549/ATCC; assay: NCI60 five-dose screen; conditions: Homo sapiens, A549
[15] = tested on: SF-268; assay: NCI60 one-dose screen; conditions: Homo sapiens, SF-268, read-out: Growth percent
[16] = tested on: SF-268; assay: NCI60 five-dose screen; conditions: Homo sapiens, SF-268
[17] = tested on: SW-620; assay: NCI60 five-dose screen; conditions: Homo sapiens, SW-620
[18] = tested on: T-47D; assay: NCI60 five-dose screen; conditions: Homo sapiens, T47D
[19] = tested on: SF-539; assay: NCI60 one-dose screen; conditions: Homo sapiens, SF-539, read-out: Growth percent
[20] = tested on: 60 human tumor cell lines (NCI60); assay: NCI60 one-dose screen, overall mean; conditions: Homo sapiens, 60 cell, read-out: Mean growth percent
[21] = tested on: HCC-2998; assay: NCI60 five-dose screen; conditions: Homo sapiens, HCC 2998
[22] = tested on: ACHN; assay: NCI60 one-dose screen; conditions: Homo sapiens, read-out: Growth percent
[23] = tested on: EKVX; assay: NCI60 five-dose screen; conditions: Homo sapiens
[24] = tested on: SN12C; assay: NCI60 five-dose screen; conditions: Homo sapiens
[25] = tested on: SK-MEL-2; assay: NCI60 one-dose screen; conditions: Homo sapiens, SK-MEL-2, read-out: Growth percent
[26] = tested on: HT29; assay: NCI60 one-dose screen; conditions: Homo sapiens, HT-29, read-out: Growth percent
[27] = tested on: NCI-H460; assay: NCI60 one-dose screen; conditions: Homo sapiens, NCI-H460, read-out: Growth percent
[28] = tested on: OVCAR-4; assay: NCI60 five-dose screen; conditions: Homo sapiens, OVCAR-4
[29] = tested on: A498; assay: NCI60 five-dose screen; conditions: Homo sapiens, A498
[30] = tested on: SNB-19; assay: NCI60 one-dose screen; conditions: Homo sapiens, SNB-19, read-out: Growth percent
[31] = tested on: U251; assay: NCI60 five-dose screen; conditions: Homo sapiens, U-251
[32] = tested on: DU-145; assay: NCI60 one-dose screen; conditions: Homo sapiens, DU-145, read-out: Growth percent
[33] = tested on: SK-MEL-5; assay: NCI60 one-dose screen; conditions: Homo sapiens, SK-MEL-5, read-out: Growth percent
[34] = tested on: Breast Cancer panel; assay: NCI60 five-dose screen, panel mean; conditions: Homo sapiens, read-out: GI50 Mean
[35] = tested on: CCRF-CEM; assay: NCI60 one-dose screen; conditions: Homo sapiens, read-out: Growth percent
[36] = tested on: HOP-62; assay: NCI60 five-dose screen; conditions: Homo sapiens, HOP-62
[37] = tested on: CNS Cancer panel; assay: NCI60 five-dose screen, panel mean; conditions: Homo sapiens, read-out: GI50 Mean
[38] = tested on: MDA-MB-468; assay: NCI60 five-dose screen; conditions: Homo sapiens, MDA-MB-468
[39] = tested on: HS 578T; assay: NCI60 one-dose screen; conditions: Homo sapiens, Hs-578T, read-out: Growth percent
[40] = tested on: OVCAR-3; assay: NCI60 five-dose screen; conditions: Homo sapiens, OVCAR-3
[41] = tested on: SF-295; assay: NCI60 five-dose screen; conditions: Homo sapiens, SF-295
[42] = tested on: MDA-MB-435; assay: NCI60 five-dose screen; conditions: Homo sapiens, MDA-MB-435
[43] = tested on: NCI-H23; assay: NCI60 one-dose screen; conditions: Homo sapiens, NCI-H23, read-out: Growth percent
[44] = tested on: COLO 205; assay: NCI60 five-dose screen; conditions: Homo sapiens, COLO 205
[45] = tested on: ACHN; assay: NCI60 five-dose screen; conditions: Homo sapiens
[46] = tested on: COLO 205; assay: NCI60 one-dose screen; conditions: Homo sapiens, COLO 205, read-out: Growth percent

For CC[C@]12C=CCN3CC[C@@]4(c5ccc(OC)cc5N(C)[C@H]4[C@@](O)(C(=O)OC)[C@@H]1OC(=O)CCCC[P+](c1ccccc1)(c1ccccc1)c1ccccc1)[C@@H]32 [compound 4, reference compound], the activity at 10 µM [1] was -35.8%, the activity at 10 µM [2] was -19.7% and the activity at 10 µM [3] was 18.5%. For the same molecule, the activity at 10 µM [4] was 56.1%, the GI50 [5] was 229 nM and the GI50 [6] was 442 nM. It also gave a GI50 [7] of 2820 nM, a GI50 [8] of 268 nM and an activity at 10 µM [9] of -36.4%. The GI50 [10] was 697 nM, the GI50 [11] was 497 nM and the GI50 [12] was 553 nM. The GI50 [13] was 273 nM, the GI50 [14] was 1020 nM and the activity at 10 µM [15] was 26.2%. For the same molecule, the GI50 [16] was 634 nM, the GI50 [17] was 1180 nM and the GI50 [18] was 303 nM. It also gave an activity at 10 µM [19] of 19%, an activity at 10 µM [20] of 11.9% and a GI50 [21] of 367 nM. The activity at 10 µM [22] was 93%, the GI50 [23] was 586 nM and the GI50 [24] was 467 nM. The activity at 10 µM [25] was -41.6%, the activity at 10 µM [26] was 2.65% and the activity at 10 µM [27] was 18.4%. The GI50 [28] was 326 nM, the GI50 [29] was 2840 nM and the activity at 10 µM [30] was 12.7%. For the same molecule, the GI50 [31] was 312 nM, the activity at 10 µM [32] was 14.7% and the activity at 10 µM [33] was -72.9%. The GI50 [34] was 500 nM, the activity at 10 µM [35] was 15.6% and the GI50 [36] was 2600 nM. The GI50 [37] was 940 nM, the GI50 [38] was 170 nM and the activity at 10 µM [39] was 9.79%. The GI50 [40] was 398 nM, the GI50 [41] was 2750 nM and the GI50 [42] was 357 nM. It also gave an activity at 10 µM [43] of 6.4%, a GI50 [44] of 242 nM and a GI50 [45] of 14600 nM. For the same molecule, the activity at 10 µM [46] was -93.7%.

— publication PMC12028158, “Synthesis and In Vitro Evaluation of the Anticancer Effect of Novel Phosphonium Vindoline Derivatives” (International Journal of Molecular Sciences, 2025)
